Measurements as given in patent publication US10086010B2 (STC.UNM, priority 2014, dated 2018).
Read-outs that look alike come from different tables or passages of the source.

How the values were obtained:
HT-29 cells [1] = experiment: WST-1 cell growth/viability assay, HT-29; assay type: cell-based, human; conditions: for effect of PARP inhibitor on the reduction in succinate-tetrazolium reductase activity by 5-FU and hmUdR: inhibitor added simultaneously with 5-FU and hmUdR; for GI50: Homo sapiens, HT-29, 72 h, 72 hours
Protocol: Indicated concentrations of drugs were added to wells one day after seeding. […] Cell proliferation was quantitated by measuring 450 nm absorbance and 600 nm as a background. All assays were performed in triplicate. […] The minimal combination index […] for each cell line was obtained from the isobologram parameters.

HT-29 cells [2] = experiment: Alkaline comet assay (single-strand breaks); assay type: cell-based, human; conditions: 48 h; for number of DNA single-strand breaks: 0.5 μM 5-FU and/or 5 μM hmUdR
Protocol: (§1) After incubation for indicated time periods (12-48 h), the cells were trypsinized and washed in PBS. For time course experiments, cells harvested at each time point were stored in 10% DMSO/40% DMEM/50% FBS at −80° C. until slide processing. Approximately 5,000 cells were spread in 0.9% low-melting point agarose/PBS on CometSlide (Trevigen), and chilled at 4° C. in the dark for 20 min.
For alkaline comet assay, slides were soaked in precooled lysis buffer containing 2.5 M NaCl/100 mM EDTA/10 mM Tris/1% sarkosyl/1% Triton X-100 at 4° C. for 45 min, followed by soaking in precooled 300 mM NaOH/1 mM EDTA at 4° C. for 45 min. Subsequently, slides were electrophoresed in 300 mM NaOH/1 mM EDTA at 1.4 V/cm for 20 min at 4° C., washed in 70% ethanol for 5 min, and allowed to dry in the dark. Cellular DNA was stained with 1×SYBR Green I (Molecular Probes) 30 min before analysis with a fluorescence microscope. Alkaline comet assays were performed in triplicate and more than 30 comets for each condition were photographed at the Light Microscope Facility at Fox Chase Cancer Center, and analyzed by CometScore software (TriTek).

HT-29 cells [3] = experiment: Cell cycle analysis by flow cytometry; assay type: cell-based, human
Protocol: HT-29 cells that were seeded at 2×10^6 cells/plate in 10 cm dishes and incubated with 20 ng/ml nocodazole for 18 h. […] The synchronized cells were washed with PBS prior to the addition of fresh medium containing the indicated nucleosides and/or bases.
Cells grown in 10 cm dishes were trypsinized, spun down and suspended in 10 ml PBS containing 0.5% FBS. […], the cells were resuspended in 0.5 ml PBS/0.5% FBS, and fixed in 5 ml 70% ethanol at −20° C. […] and washing with 10 ml PBS/0.5% FBS, the cells were suspended in 1.5 ml PBS/0.5% FBS containing 10 μg/ml propidium iodide and 50 μg/ml RNase A, and incubated at 37° C. for 30 min. Cell cycle distribution was analyzed with a FACScan flow analyzer (Becton Dickinson).

HT-29 cells [4] = experiment: CyQUANT cell proliferation assay; assay type: cell-based, human; conditions: 3AB present with 5-FU and hmUdR for 72 h
Protocol: Cell proliferation assays measuring genomic DNA were carried out using the CyQUANT kit (Invitrogen). In these experiments, the cells after drug treatments were replated to grow in the absence of the drugs for six days, and their nucleic acids was quantitated by CyQUANT assay. These assays were also conducted in triplicate.

HT-29 cells [5] = experiment: Neutral comet assay (double-strand breaks); assay type: cell-based, human; conditions: 0.5 μM FU and/or 5 μM hmUdR, 48 h
Protocol: as §1
For neutral comet assay, slides were soaked in precooled lysis buffer at 4° C. for 30 min, followed by washing in precooled 1×TBE buffer (90 mM Tris-borate, pH8.3, 2 mM EDTA). Slides were electrophoresed in 1×TBE buffer at 2 V/cm for 20 min at 4° C., rinsed in deionized water, washed in 70% ethanol for 5 min, and allowed to dry in the dark. Subsequently, slides were processed as above for DNA staining and comet analyses. Neutral comet assays were conducted in duplicate, in each of which more than 60 comets for each condition were analyzed.

HT-29 cellular DNA = experiment: Quantitation of 5-FU and hmUdR incorporated into cellular DNA; assay type: cell-based, human; conditions: at 48 h
Protocol: [6-^3H]-5-FU (18 Ci/mmol) and of [^3H]-hmUdR (10 Ci/mmole) were purchased from Moravek Biochemicals. […] At 24 or 48 h after drug addition, cells were washed with PBS and their DNA was recovered with Trizol (Invitrogen) according to the manufacturer's instruction. Subsequently the recovered DNA was quantitated by 260 nm absorbance, and its radioactivity was measured by liquid scintillation counting.

human CRC HT-29 cells = experiment: Cell growth assay, Example 2; assay type: cell-based
[6] = tested on: HT-29 cells expressing GFP-H2B; experiment: Time-lapse microscopy of cell divisions; assay type: cell-based, human; conditions: 0.5 μM 5-FU and/or 5 μM hmUdR
Protocol: HT-29 cells were infected with a retroviral vector for expression of […] histone H2B. HT-29 cells expressing GFP-H2B were seeded at 2×10^5 cells/well in 6-well plates. On the following day, drug treatments were initiated and cell proliferation was monitored by time-lapse microscopy. Image acquisition was done at the Light Microscope Facility at Fox Chase Cancer Center using phase-contrast and GFP-specific fluorescence microscopy (Nikon TE2000S) controlled by Metamorph (Molecular Devices). Images were captured at a rate of one frame per 15 minutes for 60 hours, in which cells were kept at 37° C. Images were captured from 10 areas per well. The number of cell divisions that occurred in each area was counted for the first 24 h and the second 24 h periods.

PARP1 = experiment: Immunoblot detection of PARP1 cleavage; assay type: cell-based, human; conditions: 5-FU and hmUdR 72 h; control 50 μM LY294002 1 h followed by 4 h 100 μg/ml TRAIL
Protocol: After […] on ice, cells were scraped and […] for 10 min at 4° C. The supernatant was recovered. This whole cell extract (50 μg protein) was subjected to SDS-containing polyacrylamide gel electrophoresis, and transferred to Immobilon-P membrane (Millipore). For detection of poly(ADP-ribose), the nuclear pellet was recovered after removing the whole cell extract as prepared above except that the lysis buffer was supplemented with 50 μM ethacridine, an inhibitor of poly(ADP-ribose) glycohydrolase. 10 μg protein of the nuclear pellet was subjected to gel electrophoresis and transfer to membrane as described above. Primary antibodies used in this study were anti-PARP1 monoclonal mouse antibody (Trevigen), anti-p62 polyclonal rabbit antibody (Santa Cruz Biotechnology), anti-LC3 polyclonal rabbit antibody (Novus Biologicals), anti-β-actin monoclonal mouse antibody (Sigma), and anti-PCNA monoclonal antibody (PC10; Santa Cruz Biotechnology), anti-poly(ADP-ribose) mouse monoclonal antibody (Tulip Biolabs). […] Immunoblot signals were detected either by Odyssey Imaging System (LI-COR Biotechnology) or by exposure of X-ray films to the membrane soaked in ECL reagent (GE Healthcare).

[7] = 0.5 μM 5-FU + 5 μM hmUdR, WST-1
[8] = 5 mM caffeine for the last 24 h

Molecule: NC(=O)c1cccc(N)c1 [3AB, 3-aminobenzamide]
- effect of PARP inhibitor on the reduction in succinate-tetrazolium reductase activity by 5-FU and hmUdR (HT-29 cells [1]): partially corrected
- effect of 3AB on the number of strand breaks caused by 5-FU and hmUdR (HT-29 cells [2]; 3 mM 3AB, 0.5 μM 5-FU, 5 μM hmUdR): significantly decreased
- effect of 3AB on the S phase arrest induced by 5-FU and hmUdR (HT-29 cells [3]; 3 mM 3AB added simultaneously with 0.5 μM 5-FU and 5 μM hmUdR): enabled most cells to progress through S phase to G2/M
- rescue of the effect of 5-FU and hmUdR on cell proliferation (CyQUANT) (HT-29 cells [4]): did not rescue

Molecule: O=c1[nH]cc(F)c(=O)[nH]1 [5-FU, 5-fluorouracil]
- GI50 (HT-29 cells [1]; read-out: GI50 of HT-29 cells for 5-FU, 5-FU alone): 19 µM
- GI50 (HT-29 cells [1]; read-out: GI50 of HT-29 cells for 5-FU, combined with hmUdR): < 0.1 µM
- number of DNA single-strand breaks (HT-29 cells [2]): did not significantly increase
- number of double strand breaks (HT-29 cells [5]): no significant effect
- incorporation of 5-FU into cellular DNA in the presence of hmUdR (HT-29 cellular DNA): decreased
- cells accumulated in S phase (HT-29 cells [3]; unsynchronized HT-29 cells, 0.5 μM 5-FU and/or 5 μM hmUdR, 48 h): 52%
- effect on HT-29 cell growth of increasing concentration in the absence of fdU (human CRC HT-29 cells): minimal effect

Molecule: O=c1[nH]cc(CO)c(=O)[nH]1 [5-hydroxymethyluracil]
- enhancement of 5-FU activity / synergy with 5-FU (HT-29 cells [1]; HT-29, 72 hours): did not significantly enhance

Molecule: C[C@]1(c2nc3c(C(N)=O)cccc3[nH]2)CCCN1 [ABT-888]
- effect of PARP inhibitor on the reduction in succinate-tetrazolium reductase activity by 5-FU and hmUdR (HT-29 cells [1]): partially corrected

Molecule: CN1C(=O)C(Cc2c[nH]c3ccccc23)NC1=S (stereo not shown) [Nec-1]
- effect of necroptosis inhibitor on the growth inhibition effect of 5-FU and hmUdR (HT-29 cells [1]; [7]): did not reduce

Molecule: COC(=O)CC(NC(=O)C(NC(=O)c1ccc2ccccc2n1)C(C)C)C(=O)COc1c(F)cccc1F (stereo not shown) [QVD, Quinolyl-valyl-O-methylaspartyl-[-2,6-difluorophenoxy]-methyl ketone]
- effect of caspase inhibitor on the growth inhibition effect of 5-FU and hmUdR (HT-29 cells [1]; [7]): did not diminish

Molecule: O=c1ccn([C@H]2C[C@H](O)[C@@H](CO)O2)c(=O)[nH]1 [UdR, 2′-deoxyuridine]
- enhancement of 5-FU activity / synergy with 5-FU (HT-29 cells [1]; HT-29, 72 hours): neither UdR nor heUdR significantly enhanced

Molecule: Cn1c(=O)c2c(ncn2C)n(C)c1=O [caffeine]
- effect of caffeine on the S phase arrest induced by 5-FU alone (HT-29 cells [3]; [8]): abolished
- effect of caffeine on the S phase arrest induced by the combination of 5-FU and hmUdR (HT-29 cells [3]; [8]): resistant
- effect of caffeine on the G2/M arrest of cells incubated with 3AB, 5-FU and hmUdR (HT-29 cells [3]; unsynchronized HT-29 cells): partially released the G2/M arrest

Molecule: O=Cc1cn([C@H]2C[C@H](O)[C@@H](CO)O2)c(=O)[nH]c1=O [foUdR, 5-formyl-2′-deoxyuridine]
- activity with 5-FU relative to hmUdR (HT-29 cells [1]; HT-29, 72 hours): comparable
- enhancement of 5-FU activity / synergy with 5-FU (HT-29 cells [1]; HT-29, 72 hours): acted synergistically

Molecule: O=c1[nH]c(=O)n([C@H]2C[C@H](O)[C@@H](CO)O2)cc1O [hUdR, 5-hydroxy-2′-deoxyuridine]
- enhancement of 5-FU activity / synergy with 5-FU (HT-29 cells [1]; HT-29, 72 hours): to a lesser extent, hUdR (FIG. 5E) acted synergistically

Molecule: O=c1[nH]c(=O)n([C@H]2C[C@H](O)[C@@H](CO)O2)cc1CCO [heUdR, 5-hydroxyethyl-2′-deoxyuridine]
- enhancement of 5-FU activity / synergy with 5-FU (HT-29 cells [1]; HT-29, 72 hours): neither UdR nor heUdR significantly enhanced

Molecule: O=c1[nH]c(=O)n([C@H]2C[C@H](O)[C@@H](CO)O2)cc1CO [hmUdR, 5-Hydroxymethyl-2′-deoxyuridine]
- number of DNA single-strand breaks (HT-29 cells [2]): did not significantly increase
- number of double strand breaks (HT-29 cells [5]): increased
- cell cycle distribution (HT-29 cells [3]; unsynchronized HT-29 cells, 5 μM hmUdR alone, 48 h): did not change the cell cycle distribution
- number of cell divisions per view field, second 24 h period relative to first 24 h period [6]: 1.4±0.2 times

B1: TRAIL: used with LY294002 as positive control for PARP1 cleavage; known to cause apoptosis (protein, UniProt P50591 1-281, looked up)
Tumor necrosis factor ligand …: MAMMEVQGGPSLGQTCVLIVIFTVLLQSLCVAVTYVYFTNELKQMQDKYSKSGIACFLKEDDSYWDPNDEESMNSPCWQVKWQLRQLVRKMILRTSEETISTVQEKQQNISPLVRERGPQRVAAHITGTRGRSNTLSSPNSKNEKALGRKINSWESSRSGHSFLSNLHLRNGELVIHEKGFYYIYSQTYFRFQEEIKENTKNDKQMVQYIYKYTSYPDPILLMKSARNSCWSKDAEYGLYSIYQGGIFELKENDRIFVSVTNEHLIDMDHEASFFGAFLVG
- PARP1 cleavage (characteristic of apoptosis) (PARP1): induced
